Assay results: ChEMBL document CHEMBL1201862, “PubChem BioAssay data set” (2004)
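Tested at 5 concentrations; 48 h exposure; 96-well plates; endpoints linearly interpolated, else capped at highest concentration. The concentration for 50% growth inhibition is given as GI50.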 Activity calls are given as the source filed them. Cut-off read from the data, not from the text of the source: active = GI50 up to about 1.1 µM and inactive = higher.

Legend:
Test in all cases: inhibition of tumour cell growth, NCI panel, 48 h
[1] = test system: CAKI-1
[2] = test system: SK-MEL-28
[3] = test system: UACC-62
[4] = test system: SW-620
[5] = test system: SNB-19
[6] = test system: SF-268
[7] = test system: Hs-578T
[8] = test system: OVCAR-3
[9] = test system: U-251
[10] = test system: IGROV-1
[11] = test system: EKVX
[12] = test system: OVCAR-5
[13] = test system: DU-145
[14] = test system: KM12
[15] = test system: M14
[16] = test system: NCI-H522
[17] = test system: HL-60
[18] = test system: BT-549
[19] = test system: NCI-H226
[20] = test system: K562
[21] = test system: HOP-92
[22] = test system: SK-MEL-5
[23] = test system: SN12C
[24] = test system: MDA-MB-435
[25] = test system: PC-3
[26] = test system: MOLT-4
[27] = test system: MCF7
[28] = test system: NCI-H23
[29] = test system: CCRF-CEM
[30] = test system: HCT-116
[31] = test system: HOP-62
[32] = test system: 786-0
[33] = test system: Malme-3M
[34] = test system: HCT-15
[35] = test system: OVCAR-4
[36] = test system: T47D
[37] = test system: HT-29
[38] = test system: RXF 393
[39] = test system: NCI-H460
[40] = test system: UO-31
[41] = test system: SNB-75
[42] = test system: NCI/ADR-RES
[43] = test system: TK-10
[44] = test system: ACHN
[45] = test system: A498
[46] = test system: SF-539
[47] = test system: A549
[48] = test system: SK-OV-3
[49] = test system: SR
[50] = test system: MDA-N
[51] = test system: RPMI-8226
[52] = test system: MDA-MB-231
[53] = test system: HCC 2998
[54] = test system: SK-MEL-2
[55] = test system: COLO 205
[56] = test system: LOX IMVI
[57] = test system: SF-295
[58] = test system: UACC-257
[59] = test system: OVCAR-8

Q: Which GI50 [1] does the source give for Cc1cc(NS(=O)(=O)c2ccc(NC(=O)c3ccc4nc5ccccc5c(Nc5ccc(S(N)(=O)=O)cc5)c4c3)cc2)no1 here?
A: 38.1 µM (inactive)

Q: And the GI50 [2]?
A: 21 µM (inactive)

Q: What about the GI50 [3] of the same compound?
A: 29.7 µM (inactive)

Q: And the GI50 [4]?
A: 28.1 µM (inactive)

Q: And the GI50 [5]?
A: 58.2 µM (inactive)

Q: What about the GI50 [6] of the same compound?
A: 30.5 µM (inactive)

Q: What about the GI50 [7] of the same compound?
A: 31.9 µM (inactive)

Q: What about the GI50 [8] of the same compound?
A: 27.5 µM (inactive)

Q: And the GI50 [9]?
A: 25.5 µM (inactive)

Q: What about the GI50 [10] of the same compound?
A: 33.4 µM (inactive)

Q: What about the GI50 [11] of the same compound?
A: 24.7 µM (inactive)

Q: And the GI50 [12]?
A: 27 µM (inactive)

Q: And the GI50 [13]?
A: 48.3 µM (inactive)

Q: And the GI50 [14]?
A: 22.9 µM (inactive)

Q: And the GI50 [15]?
A: 30 µM (inactive)

Q: And the GI50 [16]?
A: 17.8 µM (inactive)

Q: What about the GI50 [17] of the same compound?
A: 22.7 µM (inactive)

Q: And the GI50 [18]?
A: 28 µM (inactive)

Q: What about the GI50 [19] of the same compound?
A: > 100 µM (inactive)

Q: What about the GI50 [20] of the same compound?
A: 19.8 µM (inactive)

Q: What about the GI50 [21] of the same compound?
A: 24.6 µM (inactive)

Q: And the GI50 [22]?
A: 25.1 µM (inactive)

Q: And the GI50 [23]?
A: 27.2 µM (inactive)

Q: What about the GI50 [24] of the same compound?
A: 21.4 µM (inactive)

Q: What about the GI50 [25] of the same compound?
A: 32.3 µM (inactive)

Q: And the GI50 [26]?
A: 22.3 µM (inactive)

Q: What about the GI50 [27] of the same compound?
A: 19.9 µM (inactive)

Q: And the GI50 [28]?
A: 33 µM (inactive)

Q: What about the GI50 [29] of the same compound?
A: 22.6 µM (inactive)

Q: What about the GI50 [30] of the same compound?
A: 24.8 µM (inactive)

Q: And the GI50 [31]?
A: 33.6 µM (inactive)

Q: What about the GI50 [32] of the same compound?
A: 17.1 µM (inactive)

Q: What about the GI50 [33] of the same compound?
A: 21.5 µM (inactive)

Q: What about the GI50 [34] of the same compound?
A: 19.2 µM

Q: What about the GI50 [35] of the same compound?
A: 27.4 µM (inactive)

Q: What about the GI50 [36] of the same compound?
A: 24.2 µM (inactive)

Q: What about the GI50 [37] of the same compound?
A: 28.6 µM (inactive)

Q: And the GI50 [38]?
A: 23.4 µM (inactive)

Q: And the GI50 [39]?
A: 20.7 µM (inactive)

Q: And the GI50 [40]?
A: 20.1 µM (inactive)

Q: And the GI50 [41]?
A: 38.2 µM (inactive)

Q: What about the GI50 [42] of the same compound?
A: 31.8 µM (inactive)

Q: And the GI50 [43]?
A: 30.5 µM (inactive)

Q: What about the GI50 [44] of the same compound?
A: 21.3 µM (inactive)

Q: And the GI50 [45]?
A: 55.5 µM (inactive)

Q: What about the GI50 [46] of the same compound?
A: 27.9 µM (inactive)

Q: And the GI50 [47]?
A: 24.6 µM (inactive)

Q: And the GI50 [48]?
A: > 100 µM (inactive)

Q: What about the GI50 [49] of the same compound?
A: 25.1 µM (inactive)

Q: And the GI50 [50]?
A: 25.6 µM (inactive)

Q: What about the GI50 [51] of the same compound?
A: 24.7 µM (inactive)

Q: And the GI50 [52]?
A: 24 µM (inactive)

Q: What about the GI50 [53] of the same compound?
A: 38.9 µM (inactive)

Q: What about the GI50 [54] of the same compound?
A: 23.9 µM (inactive)

Q: And the GI50 [55]?
A: 20.6 µM (inactive)

Q: What about the GI50 [56] of the same compound?
A: 13.6 µM (inactive)

Q: What about the GI50 [57] of the same compound?
A: 26.6 µM (inactive)

Q: And the GI50 [58]?
A: 22 µM (inactive)

Q: What about the GI50 [59] of the same compound?
A: 24.6 µM (inactive)

Q: Which GI50 [1] does the source give for COc1ccc2nc3ccc(OC)cc3c([S+]([O-])Cc3ccc([N+](=O)[O-])cc3)c2c1 (stereo not drawn) here?
A: 15.3 µM (inactive)

Q: And the GI50 [2]?
A: 5.97 µM (inactive)

Q: And the GI50 [3]?
A: 15.2 µM (inactive)

Q: And the GI50 [4]?
A: 2.18 µM (inactive)

Q: And the GI50 [5]?
A: 21.3 µM (inactive)

Q: And the GI50 [6]?
A: 22.1 µM (inactive)

Q: And the GI50 [7]?
A: 8.87 µM (inactive)

Q: And the GI50 [8]?
A: 5.47 µM (inactive)

Q: And the GI50 [9]?
A: 10.9 µM (inactive)

Q: And the GI50 [10]?
A: 5.3 µM (inactive)

Q: And the GI50 [11]?
A: 16.6 µM (inactive)

Q: And the GI50 [12]?
A: 12.9 µM (inactive)

Q: What about the GI50 [13] of the same compound?
A: 2.58 µM (inactive)

Q: What about the GI50 [14] of the same compound?
A: 18.4 µM (inactive)

Q: What about the GI50 [15] of the same compound?
A: 7.87 µM (inactive)

Q: What about the GI50 [16] of the same compound?
A: 1.73 µM (inactive)

Q: And the GI50 [17]?
A: 1.75 µM (inactive)

Q: What about the GI50 [18] of the same compound?
A: 18.7 µM (inactive)

Q: And the GI50 [19]?
A: 22.9 µM (inactive)

Q: What about the GI50 [20] of the same compound?
A: 3.56 µM (inactive)

Q: What about the GI50 [21] of the same compound?
A: 3.13 µM (inactive)

Q: And the GI50 [22]?
A: 16.7 µM (inactive)

Q: What about the GI50 [23] of the same compound?
A: 3.65 µM (inactive)

Q: And the GI50 [24]?
A: 8.07 µM (inactive)

Q: What about the GI50 [25] of the same compound?
A: 14.5 µM (inactive)

Q: And the GI50 [26]?
A: 1.83 µM (inactive)

Q: What about the GI50 [27] of the same compound?
A: 1.92 µM (inactive)

Q: What about the GI50 [28] of the same compound?
A: 6.7 µM (inactive)

Q: And the GI50 [29]?
A: 2.11 µM (inactive)

Q: What about the GI50 [30] of the same compound?
A: 1.69 µM (inactive)

Q: And the GI50 [31]?
A: 16.1 µM (inactive)

Q: What about the GI50 [32] of the same compound?
A: 2.1 µM (inactive)

Q: What about the GI50 [33] of the same compound?
A: 2.37 µM (inactive)

Q: What about the GI50 [34] of the same compound?
A: 3.19 µM

Q: And the GI50 [35]?
A: 9.51 µM (inactive)

Q: And the GI50 [36]?
A: 1.95 µM (inactive)

Q: What about the GI50 [37] of the same compound?
A: 2.58 µM (inactive)

Q: And the GI50 [38]?
A: 5.04 µM (inactive)

Q: What about the GI50 [39] of the same compound?
A: 23.3 µM (inactive)

Q: What about the GI50 [40] of the same compound?
A: 6.44 µM (inactive)

Q: And the GI50 [41]?
A: 19.3 µM (inactive)

Q: And the GI50 [42]?
A: 21.2 µM (inactive)

Q: What about the GI50 [43] of the same compound?
A: 5.9 µM (inactive)

Q: What about the GI50 [44] of the same compound?
A: 5.52 µM (inactive)

Q: What about the GI50 [45] of the same compound?
A: 17.3 µM (inactive)

Q: And the GI50 [46]?
A: 2.81 µM (inactive)

Q: What about the GI50 [47] of the same compound?
A: 25.8 µM (inactive)

Q: And the GI50 [48]?
A: 21.1 µM (inactive)

Q: What about the GI50 [49] of the same compound?
A: 8.18 µM (inactive)

Q: And the GI50 [50]?
A: 14.2 µM (inactive)

Q: And the GI50 [51]?
A: 2.61 µM (inactive)

Q: What about the GI50 [52] of the same compound?
A: 15.7 µM (inactive)

Q: And the GI50 [53]?
A: 17.5 µM (inactive)

Q: And the GI50 [54]?
A: 17.9 µM (inactive)

Q: And the GI50 [55]?
A: 2.92 µM (inactive)

Q: And the GI50 [56]?
A: 5.16 µM (inactive)

Q: And the GI50 [57]?
A: 20.6 µM (inactive)

Q: And the GI50 [58]?
A: 3.9 µM (inactive)

Q: And the GI50 [59]?
A: 3.39 µM (inactive)
